This experiment has as its target T1, human vasopressin V1a receptor subtype (Homo sapiens, UniProt P37288).
T1 construct: host or cells: CHO cells (pZeoSV vector for the Thibonnier line)
The experiment in a line: Vasopressin binding in Chinese Hamster Ovary cell membranes expressing human vasopressin V1a subtype receptors. The conditions noted are these: CHO cell membranes, [3H]Manning ligand, values in parentheses. Summed up:
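Membranes from CHO cells expressing human V1a receptor were incubated with [3H]Manning ligand (added as 20 μL of 8 nM) in pH 7.4 Tris buffer with MgCl2, BSA and protease inhibitors, 60 min at room temperature. Bound radioactivity was counted after filtration; values are percent inhibition at a stated concentration or IC50.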

Each structure is given as a SMILES string. pIC50: −log10 of the molar value.

T1 sequence (P37288 whole entry): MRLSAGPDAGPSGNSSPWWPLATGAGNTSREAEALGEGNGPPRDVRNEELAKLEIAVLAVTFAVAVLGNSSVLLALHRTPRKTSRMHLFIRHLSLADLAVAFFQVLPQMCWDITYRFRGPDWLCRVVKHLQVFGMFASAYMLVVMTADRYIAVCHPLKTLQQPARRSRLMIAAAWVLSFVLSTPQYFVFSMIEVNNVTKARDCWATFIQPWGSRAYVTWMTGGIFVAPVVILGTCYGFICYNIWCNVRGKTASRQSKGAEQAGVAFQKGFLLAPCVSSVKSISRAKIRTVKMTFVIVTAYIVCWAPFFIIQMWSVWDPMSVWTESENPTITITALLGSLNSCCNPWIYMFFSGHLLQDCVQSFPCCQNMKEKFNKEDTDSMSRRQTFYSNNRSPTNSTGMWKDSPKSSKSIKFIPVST

Take `Cc1cc(C(=O)N2Cc3ccc(C(=O)N4CCC[C@H]4CN4CCCC4)n3Cc3ccccc32)ccc1-c1ccccc1C(F)(F)F` [Example 258, (10-{[2-Methyl-2′-(trifluoromethyl)[1,1′-biphenyl]-4-yl]carbonyl}-10,11-dihydro-5H-pyrrolo[2,1-c][1,4]benzodiazepin-3-yl)[(2S)-2-(1-pyrrolidinylmethyl)pyrrolidinyl]methanone]: the negative-log IC50 (pIC50) was 6.04.
Consider `COc1cccc(-c2ccc(C(=O)N3Cc4ccc(C(=O)N5CCC[C@H]5CN5CCCC5)n4Cc4ccccc43)cc2C)c1` [Example 263, {10-[(3′-Methoxy-2-methyl[1,1′-biphenyl]-4-yl)carbonyl]-10,11-dihydro-5H-pyrrolo[2,1-c][1,4]benzodiazepin-3-yl}[(2S)-2-(1-pyrrolidinylmethyl)pyrrolidinyl]methanone], for which the negative logarithm of the IC50 (pIC50) is 6.69.
Regarding `Cc1cc(C(=O)N2Cc3ccc(C(=O)N4CC[C@@H](N(C)C)C4)n3Cc3ccccc32)ccc1-c1ccccc1C(F)(F)F` [Example 271, [(3R)-3-(Dimethylamino)pyrrolidinyl](10-{[2-methyl-2′-(trifluoromethyl)[1,1′-biphenyl]-4-yl]carbonyl}-10,11-dihydro-5H-pyrrolo[2,1-c][1,4]benzodiazepin-3-yl)methanone], the pIC50 was 6.01.
Next, `COc1ccccc1-c1ccc(C(=O)N2Cc3ccc(C(=O)N4CC[C@@H](N(C)C)C4)n3Cc3ccccc32)cc1C` [Example 272, [(3R)-3-(Dimethylamino)pyrrolidinyl]{10-[(2′-methoxy-2-methyl[1,1′-biphenyl]-4-yl)carbonyl]-10,11-dihydro-5H-pyrrolo[2,1-c][1,4]benzodiazepin-3-yl}methanone]: 6.52; `COc1cc(-c2ccccc2C)c(Cl)cc1C(=O)N1Cc2ccc(C(=O)N3CC[C@@H](N(C)C)C3)n2Cc2ccccc21` [Example 273, {10-[(6-Chloro-3-methoxy-2′-methyl[1,1′-biphenyl]-4-yl)carbonyl]-10,11-dihydro-5H-pyrrolo[2,1-c][1,4]benzodiazepin-3-yl}[(3R)-3-(dimethylamino)pyrrolidinyl]methanone]: 6.32.
Next, `COc1cccc(-c2ccc(C(=O)N3Cc4ccc(C(=O)N5CC[C@@H](N(C)C)C5)n4Cc4ccccc43)cc2C)c1` [Example 278, [(3R)-3-(Dimethylamino)pyrrolidinyl]{10-[(3′-methoxy-2-methyl[1,1′-biphenyl]-4-yl)carbonyl]-10,11-dihydro-5H-pyrrolo[2,1-c][1,4]benzodiazepin-3-yl}methanone]: 6.52.

What is called pIC50 is the IC50 on a negative log10 scale, so that one unit is a factor of ten.
